pIC50: −log10 of the molar value. Numbered stars: 1 amine (or outer) side, 2 acyl side, 3 side chain; on linkers, the order of the positions; unused ones are H or OH. Bridge positions count the residues as written; N and C are the ends. Square brackets hold non-standard residues; d marks the D form. Peptide text beside a SMILES is read from it. * marks the point of attachment. hPhe(3-Cl-4-CF3) = N[C@@H](CCc1ccc(C(F)(F)F)c(Cl)c1)C(=O)O; hPhe(3-F,4-CF3) = N[C@@H](CCc1ccc(C(F)(F)F)c(F)c1)C(=O)O; X8 = CC(C)Oc1cc(CC[C@H](N[*:1])C(=O)[*:2])cc(Cl)c1Cl; NMePhe(4-CF3) = CN[C@@H](Cc1ccc(C(F)(F)F)cc1)C(=O)O; X15 = O=C([C@H](CCc1cc(Cl)c(Cl)c(Cl)c1)N[*:1])[*:2]; hPhe(4-CF3) = N[C@@H](CCc1ccc(C(F)(F)F)cc1)C(=O)O; ACHC(1R,2R) = O=C([C@@H]1CCCC[C@H]1N[*:1])[*:2]; NMePhe(4-Cl) = CN[C@@H](Cc1ccc(Cl)cc1)C(=O)O; NMePhe(4-Me) = CN[C@@H](Cc1ccc(C)cc1)C(=O)O; hPhe(4-Cl) = N[C@@H](CCc1ccc(Cl)cc1)C(=O)O; NMedβ3hAla = C[C@H](CC(=O)[*:2])N(C)[*:1]; NMeGly(cPent) = CN[C@H](C(=O)O)C1CCCC1; NMeGly(cBu) = CN[C@H](C(=O)O)C1CCC1; NMeCha = CN[C@@H](CC1CCCCC1)C(=O)O; cisHyp = O=C(O)[C@@H]1C[C@H](O)CN1; NMehLeu = CN[C@@H](CCC(C)C)C(=O)O; Hyp = O=C(O)[C@@H]1C[C@@H](O)CN1; NMeChg = CN[C@H](C(=O)O)C1CCCCC1; NMeF = CN[C@@H](Cc1ccccc1)C(=O)O; NMeI = CC[C@H](C)[C@H](NC)C(=O)O; d(β3hL) = CC(C)C[C@@H](N)CC(=O)O; NMeD = CN[C@@H](CC(=O)O)C(=O)O; NMeL = CN[C@@H](CC(C)C)C(=O)O; NMeNle = CCCC[C@H](NC)C(=O)O; NMeV = CN[C@H](C(=O)O)C(C)C; d(β3hA) = C[C@@H](N)CC(=O)O; NMeS = CN[C@@H](CO)C(=O)O; Morpholide = C1CN(*)CCO1; NMeA = CN[C@@H](C)C(=O)O; NMeAib = CNC(C)(C)C(=O)O; Piperidide = C1CCN(*)CC1; Ac5c = NC1(C(=O)O)CCCC1; Aze = O=C(O)[C@@H]1CCN1; Ethyl(2,2-F2) = FC(F)C*; NEtG = CCNCC(=O)O; Sar = CNCC(=O)O; Propyl = CCC*
Target: protein-protein interaction between Kras and SOS1 (biotin-tagged human Kras loaded with GDP, His-tagged human SOS1) (Homo sapiens (Human), UniProt P01116, G12D)
Experiment: Protein-protein interaction inhibition between Kras and SOS1 (KrasG12D-SOS PPI) using AlphaScreen;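 further: kras produced in E. coli, Ni-coupled donor beads and streptavidin acceptor beads, excitation 680 nm with emission detected at 520–620 nm via singlet oxygen transfer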
Type: biochemical
Details: AlphaScreen; biotin-tagged human Kras loaded with GDP, His-tagged human SOS1; read-out: KRAS G12D-SOS PPI IC50

SMILES	pIC50
CC[C@H](C)[C@@H]1NC(=O)[C@H](CC(C)C)N(C)C(=O)C[C@@H](C(=O)N(C)C)N(C)C(=O)[C@H]([C@@H](C)CC)N(C)C(=O)C2(CCCC2)NC(=O)[C@@H]2CCCN2C(=O)[C@H](CCc2ccc(C(F)(F)F)c(Cl)c2)NC(=O)CN(C)C(=O)[C@H](C2CCC2)N(C)C(=O)[C@@H]2CCN2C(=O)[C@H](C)N(C)C1=O [Compound 1961] ([NMeL]I[NMeA][Aze][NMeGly(cBu)][Sar][hPhe(3-Cl-4-CF3)]P[Ac5c][NMeI][NMeD]-NMe2; lactam N-11)	8.74
CC[C@H](C)[C@@H]1NC(=O)[C@H](CC(C)C)N(C)C(=O)C[C@@H](C(=O)N2CCCCC2)N(C)C(=O)[C@H](C2CCCCC2)N(C)C(=O)C2(CCCC2)NC(=O)[C@@H]2C[C@H](OCC(F)F)CN2C(=O)[C@H](CCc2ccc(C(F)(F)F)c(Cl)c2)NC(=O)CN(C)C(=O)[C@H](CC2CCCCC2)N(C)C(=O)CN(C)C(=O)CN(C)C1=O [Compound 2123] ([NMeL]I[Sar][Sar][NMeCha][Sar][hPhe(3-Cl-4-CF3)][cisHyp](Ethyl(2,2-F2))[Ac5c][NMeChg][NMeD]-Piperidide; lactam N-11)	8.82
CC[C@H](C)[C@@H]1NC(=O)[C@H](CC(C)C)N(C)C(=O)C[C@@H](C(=O)N2CCCCC2)N(C)C(=O)[C@H]([C@@H](C)CC)N(C)C(=O)C2(CCCC2)NC(=O)[C@@H]2CCCN2C(=O)[C@H](CCc2ccc(C(F)(F)F)c(F)c2)NC(=O)CN(C)C(=O)[C@H](CC2CCCCC2)N(C)C(=O)[C@@H]2CCN2C(=O)[C@H](C)N(C)C1=O [Compound 409] ([NMeL]I[NMeA][Aze][NMeCha][Sar][hPhe(3-F,4-CF3)]P[Ac5c][NMeI][NMeD]-Piperidide; lactam N-11)	8.62
CCCOC[C@H]1C(=O)N(C)CC(=O)N[C@@H](CCc2ccc(C(F)(F)F)c(F)c2)C(=O)N2CCC[C@H]2C(=O)NC2(CCCC2)C(=O)N(C)[C@@H]([C@@H](C)CC)C(=O)N(C)[C@H](C(=O)N2CCOCC2)CC(=O)N(C)[C@@H](CC(C)C)C(=O)N[C@@H]([C@@H](C)CC)C(=O)N(C)[C@@H](C)C(=O)N2CC[C@H]2C(=O)N1C [Compound 827] ([NMeL]I[NMeA][Aze][NMeS](Propyl)[Sar][hPhe(3-F,4-CF3)]P[Ac5c][NMeI][NMeD]-Morpholide; lactam N-11)	8.55
CC[C@H](C)[C@@H]1NC(=O)[C@H]([C@@H](C)CC)N(C)C(=O)C[C@@H](C)N(C)C(=O)[C@H](C(C)C)N(C)C(=O)C(C)(C)N(C)C(=O)[C@@H]2CCCN2C(=O)[C@H](CCc2ccc(C(F)(F)F)c(Cl)c2)NC(=O)CN(C)C(=O)[C@H](CC2CCCCC2)N(C)C(=O)[C@@H]2CCN2C(=O)[C@H](C)N(C)C1=O [Compound 2159, (5S,8S,11S,15R,18S,23aS,29S,35S,37aS)-8,11-di((S)-sec-butyl)-29-(3-chloro-4-(trifluoromethyl)phenethyl)-35-(cylohexylmethyl)-18-isopropyl-5,6,12,15,16,19,21,21,22,33,36-undecamethyltetracosahydro-2H-azeto[2,1-u]pyrrolo[2,1-i] [1,4,7,10,13,16,19,22,25,28,31]undecaazacyclotetratriacontyne-4,7,10,13,17,20,23,28,31,34,37(14H)-undecone] (cyclo([Aze][NMeCha][Sar][hPhe(3-Cl-4-CF3)]P[NMeAib][NMeV][NMedβ3hAla][NMeI]I[NMeA]))	8.46
CC[C@H](C)[C@@H]1NC(=O)[C@H](C)N(C)C(=O)C[C@@H](C(=O)N2CCCCC2)N(C)C(=O)[C@H](C(C)C)N(C)C(=O)C2(CCCC2)NC(=O)[C@@H]2CCCN2C(=O)[C@H](CCc2cc(Cl)c(Cl)c(OC(C)C)c2)NC(=O)CN(C)C(=O)[C@H](CC2CCCCC2)N(C)C(=O)CN(C)C(=O)CN(C)C1=O [Compound 2079] ([NMeA]I[Sar][Sar][NMeCha][Sar][X8]P[Ac5c][NMeV][NMeD]-Piperidide; lactam N-11)	7.77
CCCC[C@H]1C(=O)N[C@@H]([C@@H](C)CC)C(=O)N(C)[C@@H](C)C(=O)N2CC[C@H]2C(=O)N(C)[C@@H](CC2CCCCC2)C(=O)N(C)CC(=O)N[C@@H](CCc2ccc(C(F)(F)F)c(Cl)c2)C(=O)N2CCC[C@H]2C(=O)NC2(CCCC2)C(=O)N(C)[C@@H](C(C)C)C(=O)N[C@H](C)CC(=O)N1C [Compound 1568] (cyclo([Ac5c][NMeV][d(β3hA)][NMeNle]I[NMeA][Aze][NMeCha][Sar][hPhe(3-Cl-4-CF3)]P))	7.03
CCCC[C@H]1C(=O)N2CC[C@H]2C(=O)N(C)[C@@H](CC2CCCCC2)C(=O)N(C)CC(=O)N[C@@H](CCc2ccc(C(F)(F)F)c(Cl)c2)C(=O)N2CCC[C@H]2C(=O)NC2(CCCC2)C(=O)N(C)[C@@H](C(C)C)C(=O)N[C@H](C)CC(=O)N(C)[C@@H](CC(C)C)C(=O)N[C@@H]([C@@H](C)CC)C(=O)N1C [Compound 1548] (cyclo([Ac5c][NMeV][d(β3hA)][NMeL]I[NMeNle][Aze][NMeCha][Sar][hPhe(3-Cl-4-CF3)]P))	6.85
CC[C@H](C)[C@@H]1NC(=O)[C@H](C)N(C)C(=O)C[C@@H](C(=O)N2CCCCC2)N(C)C(=O)[C@H](C2CCCCC2)N(C)C(=O)C2(CCCC2)NC(=O)[C@@H]2CCCN2C(=O)[C@H](CCc2cc(Cl)c(Cl)c(Cl)c2)NC(=O)CN(C)C(=O)[C@H](CC2CCCCC2)N(C)C(=O)CN(C)C(=O)CN(C)C1=O [Compound 2059, (3S,9S,18S,21S,25S,28S,34S)-28-cyclohexyl-9-(cyclohexylmethyl)-7,10,13,16,21,22,26,29-octamethyl-18-[(1S)-1-methylpropyl]-25-(piperidine-1-carbonyl)-3-[2-(3,4,5-trichlorophenyl)ethyl]spiro[1,4,7,10,13,16,19,22,26,29,32-undecazabicyclo[32.3.0]heptatriacontane-31,1′-cyclopentane]-2,5,8,11,14,17,20,23,27,30,33-undecone] ([NMeA]I[Sar][Sar][NMeCha][Sar][X15]P[Ac5c][NMeChg][NMeD]-Piperidide; lactam N-11)	9.02
CC[C@H](C)[C@@H]1NC(=O)[C@H](CCC(C)C)N(C)C(=O)C[C@@H](C(=O)N2CCCCC2)N(C)C(=O)[C@H](C(C)C)N(C)C(=O)C2(CCCC2)NC(=O)[C@@H]2CCCN2C(=O)[C@H](CCc2ccc(C(F)(F)F)c(Cl)c2)NC(=O)CN(C)C(=O)[C@H](CC2CCCCC2)N(C)C(=O)[C@@H]2CCN2C(=O)[C@H](C)N(C)C1=O [Compound 1833] ([NMehLeu]I[NMeA][Aze][NMeCha][Sar][hPhe(3-Cl-4-CF3)]P[Ac5c][NMeV][NMeD]-Piperidide; lactam N-11)	8.12
CCO[C@@H]1C[C@H]2C(=O)NC3(CCCC3)C(=O)N(C)[C@@H](C3CCCC3)C(=O)N(C)[C@H](C)CC(=O)N(C)[C@@H](CC(C)C)C(=O)N[C@@H]([C@@H](C)CC)C(=O)N(C)CC(=O)N(C)CC(=O)N(C)[C@@H](Cc3ccc(C(F)(F)F)cc3)C(=O)N(C)CC(=O)N[C@@H](CCc3ccc(C(F)(F)F)c(Cl)c3)C(=O)N2C1 [Compound 541] (cyclo([Ac5c][NMeGly(cPent)][NMedβ3hAla][NMeL]I[Sar][Sar][NMePhe(4-CF3)][Sar][hPhe(3-Cl-4-CF3)][Hyp](Et)))	8.37
CC[C@H](C)[C@@H]1NC(=O)[C@H](C(C)C)NC(=O)[C@@H]2CCCC[C@H]2NC(=O)[C@H](CC(C)C)N(C)C(=O)C2(CCCC2)NC(=O)[C@H](CC(C)C)N(C)C(=O)[C@H](CCc2ccc(C(F)(F)F)cc2)NC(=O)CN(C)C(=O)[C@H](Cc2ccc(Cl)cc2)N(C)C(=O)CN(C)C(=O)CN(C)C1=O [Compound 1126] (cyclo([Ac5c][NMeL][ACHC(1R,2R)]VI[Sar][Sar][NMePhe(4-Cl)][Sar][hPhe(4-CF3)][NMeL]))	6.60
CC[C@H](C)[C@@H]1NC(=O)[C@H](CC(C)C)N(C)C(=O)C[C@@H](CC(C)C)NC(=O)[C@H]([C@@H](C)CC)N(C)C(=O)C2(CCCC2)NC(=O)[C@@H]2CCCN2C(=O)[C@H](CCc2ccc(C(F)(F)F)c(Cl)c2)NC(=O)CN(C)C(=O)[C@H](Cc2ccc(C)cc2)N(C)C(=O)[C@@H]2CCN2C(=O)[C@H](C)N(C)C1=O [Compound 1995] (cyclo([Ac5c][NMeI][d(β3hL)][NMeL]I[NMeA][Aze][NMePhe(4-Me)][Sar][hPhe(3-Cl-4-CF3)]P))	6.47
CC[C@H](C)[C@@H]1NC(=O)[C@H](C)N(C)C(=O)C[C@@H](C(=O)N2CCCCC2)N(C)C(=O)[C@H](C(C)C)N(C)C(=O)C2(CCCC2)NC(=O)[C@@H]2CCCN2C(=O)[C@H](CCc2ccc(C(F)(F)F)c(Cl)c2)NC(=O)[C@H]2CCCN2C(=O)[C@H](Cc2ccccc2)N(C)C(=O)[C@@H]2CCCN2C(=O)CN(C)C1=O [Compound 1839] ([NMeA]I[Sar]P[NMeF][dP][hPhe(3-Cl-4-CF3)]P[Ac5c][NMeV][NMeD]-Piperidide; lactam N-11)	7.26
CC[C@H](C)[C@@H]1NC(=O)[C@H](CC(C)C)N(C)C(=O)C[C@@H](C(=O)N2CCCCC2)N(C)C(=O)[C@H](C(C)C)N(C)C(=O)C2(CCCC2)NC(=O)[C@@H]2CCCN2C(=O)[C@H](CCc2ccc(Cl)cc2)NC(=O)CN(C)C(=O)[C@H](CC2CCCCC2)N(C)C(=O)CN(C)C(=O)[C@@H]2CCCN2C1=O [Compound 530] ([NMeL]IP[Sar][NMeCha][Sar][hPhe(4-Cl)]P[Ac5c][NMeV][NMeD]-Piperidide; lactam N-11)	6.85
CC[C@H](C)[C@@H]1NC(=O)[C@H](CC(C)C)N(C)C(=O)C[C@@H](C(=O)N2CCOCC2)N(C)C(=O)[C@H](C2CCCC2)N(C)C(=O)C2(CCCC2)NC(=O)[C@@H]2CCCN2C(=O)[C@H](CCc2ccc(C(F)(F)F)c(Cl)c2)NC(=O)CN(CC)C(=O)[C@H](C2CCCC2)N(C)C(=O)[C@@H]2CCN2C(=O)[C@H](C)N(C)C1=O [Compound 1142] ([NMeL]I[NMeA][Aze][NMeGly(cPent)][NEtG][hPhe(3-Cl-4-CF3)]P[Ac5c][NMeGly(cPent)][NMeD]-Morpholide; lactam N-11)	8.19

— patent US20240148821A1, “PHARMACEUTICAL USE OF CYCLIC PEPTIDE COMPOUND” (CHUGAI SEIYAKU KABUSHIKI KAISHA, priority 2021, published 2024)
